Measurements taken from patent US20080227684A1, “Small Molecule Inhibitors of PDZ Interactions” (priority 2005, published 2008).

Experiments:
Experiment in all cases: Matrix modified G-assay, small molecule competition titration
PSD95 d1 = target: T1, PSD95 d1 (Homo sapiens, UniProt P78352); conditions: competition with biotinylated PL peptide at GST-PDZ fusion protein; read-out: IC50 PSD95 d1 (relative binding affinity by titration analysis)
T1 construct: made in house
Procedure: (§1) Small Molecule Competition Assay. The reagents, supplies and protocol are as follows:
(§2) Reagents and Supplies: • (1) Nunc Maxisorp 96 well Immuno-plates • (2) PBS pH 7.4 (phosphate buffered saline, 8 g NaCl, 0.29 g KCl, 1.44 g Na2HPO4, 0.24 g • (3) KH2PO4, add H2O to 1 L and pH 7.4; 0.2μ filter) • (4) Assay Buffer: 2% BSA in PBS (20 g of BSA per liter PBS), ICN Biomedicals • (5) Goat anti-GST polyclonal antibody, stock 5 mg/ml, stored at 4° C., (Amersham Pharmacia); Diluted 1:1000 in PBS to a final concentration 5 μg/ml • (6) HRP-Streptavidin, 2.5 mg/2 ml stock stored @ 4° C., Zymed,- dilute 1:2000 into Assay buffer, final [0.5 μg/ml] • (7) Biotinylated peptides (from Anaspec, stored in −20° C. freezer) • (8) GST-PRISM proteins (stock stored @ −80° C., after 1st thaw store in −10° C. freezer) • (9) TMB (3,3′,5,5′, teramethylbensidine), ready to use • (10) 0.18M H2SO4 • (11) 12-w multichannel pipettor • (12) 200 μl LTS tips • (13) 50 ml reagent reservoirs • (14) 50 polypropylene conical tubes • (15) 15 ml polypropylene round-bottom tubes • (16) 1.5 ml microtubes • (17) Molecular Devices microplate reader (450 nm filters) • (18) SoftMax Pro software • (19) Assay buffer (1×PBS, 0.01% Triton X-100)
(§3) Protocol. The wells of eighteen to twenty 96-well plates were coated with 100 μl of 5 μg/ml anti-GST antibody (in each well), and left overnight at 4° C. The plates were then emptied by inverting and tapped dry on paper towels. 200 μl of blocking buffer (1×PBS/2% BSA) was added to each well and the plates were left for 1-2 hrs at room temperature. […] GST-PDZ fusion proteins were diluted to a final concentration of 5 μg/ml in 1×PBS/2% BSA and 50 μl was added to each well. After incubating for 1-2 hours at 4° C. excess unbound fusion protein was removed by washing, i.e., using the automatic plate washer (3× with room temperature 1×PBS).
(§4) PDZ ligand peptides, small molecule test compounds, and HRP were prepared in Assay Buffer as follows: • Biotinylated PDZ ligand synthetic peptides were prepared in one-quarter final volume, i.e., at 4× final concentration; • Steptavidin-HRP conjugate (Zymed) was diluted (1:500) in one-quarter final volume, i.e., at 4× final concentration; • Biotinylated peptides and Streptavidin-HRP were then mixed together, and incubated for 20 min at room temperature to form a signal generating peptide ligand complex; • While the peptide/HRP mix was incubating, test compound dilutions were prepared in half the final volume, i.e., at 2× final concentration; and, • Immediately before adding the final peptide ligand complex mixture to the plate, the drug titration was added to give a mixture with 1× concentrations and the final correct total volume. The signal generating peptide ligand/test compound mixtures were then added to each well of the plates to give 50 μl per well and the time of each addition was recorded. The plates were then incubated at room temperature, after the last peptide had been added, for exactly 30 min. After incubation, the plates were washed using the automatic plate washer (7× with room temperature 1×PBS). To detect the signal generating peptide ligand TMB substrate (for HRP) was added to each well of the plates at 100 μl per well and the time of TMB addition was recorded. The plates were then incubated in the dark at room temperature for a maximum of 30 min. The calorimetric reaction was then stopped using 100 μl of 0.18M H2SO4 30 minutes after adding TMB. The signal in each well of the plates were then determined by measuring the optical density at 450 nm.
(§5) The relative binding affinities of the compounds in FIG. 2A, and other, small molecule inhibitors were determined by titrating the compounds in the same competitive binding assay.

PSD95 d3 = target: T2, PSD95 d3 (Homo sapiens, UniProt P78352); conditions: competition with biotinylated PL peptide at GST-PDZ fusion protein; read-out: IC50 PSD95 d3 (relative binding affinity by titration analysis)
T2 construct: made in house
Procedure: as §1, §2, §3, §4, §5

Tip1 = target: T3, Tip1 (Homo sapiens, UniProt O14907); conditions: competition with biotinylated PL peptide at GST-PDZ fusion protein; read-out: IC50 Tip1 (relative binding affinity by titration analysis)
T3 construct: made in house
T3 sequence (O14907 15-112 limits assumed): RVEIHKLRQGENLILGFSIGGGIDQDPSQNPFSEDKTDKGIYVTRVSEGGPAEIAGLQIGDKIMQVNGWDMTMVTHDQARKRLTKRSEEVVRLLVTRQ
Procedure: as §1, §2, §3, §4, §5

Magi1 d1 = target: T4, Magi1 d1 (Homo sapiens, UniProt Q96QZ7); conditions: competition with biotinylated PL peptide at GST-PDZ fusion protein; read-out: IC50 Magi1 d1 (relative binding affinity by titration analysis)
T4 construct: made in house
Procedure: as §1, §2, §3, §4, §5

PSD95 d2 = target: T5, PSD95 d2 (Homo sapiens, UniProt P78352); conditions: competition with biotinylated PL peptide at GST-PDZ fusion protein; read-out: IC50 PSD95 d2 (relative binding affinity by titration analysis)
T5 construct: made in house
Procedure: as §1, §2, §3, §4, §5

Shank 1 = target: T6, Shank 1 (Homo sapiens, UniProt Q9Y566); conditions: competition with biotinylated PL peptide at GST-PDZ fusion protein; read-out: IC50 Shank 1 (relative binding affinity by titration analysis)
T6 construct: made in house
T6 sequence (Q9Y566 663-757 limits assumed): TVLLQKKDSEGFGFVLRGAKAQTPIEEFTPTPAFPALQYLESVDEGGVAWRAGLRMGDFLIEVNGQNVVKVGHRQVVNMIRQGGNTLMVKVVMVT
Procedure: as §1, §2, §3, §4, §5

T4 sequence (Q96QZ7 472-554 limits assumed): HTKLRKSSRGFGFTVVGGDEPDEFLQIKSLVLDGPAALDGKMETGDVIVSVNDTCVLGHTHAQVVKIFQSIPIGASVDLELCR

Cc1ccc([N+](=O)[O-])cc1NC(=O)c1cc(S(=O)(=O)Nc2cccc(C(=O)O)c2)c(Cl)cc1Cl [Compound 8009-5039]
IC50 (PSD95 d1): > 250 µM | IC50 (PSD95 d3): > 250 µM | IC50 (Tip1): > 250 µM | IC50 (Magi1 d1): > 250 µM | IC50 (PSD95 d2): > 250 µM | IC50 (Shank 1): > 250 µM

O=C(NCCO)C(=O)Nc1ccccc1C(=O)O [MC 247808]
IC50 (PSD95 d1): > 250 µM | IC50 (PSD95 d3): > 250 µM | IC50 (Tip1): > 250 µM | IC50 (Magi1 d1): > 250 µM | IC50 (PSD95 d2): 221 µM | IC50 (Shank 1): > 250 µM

COc1cccc(-c2nc3c(c(SCC(=O)Nc4cccc(C(=O)O)c4)n2)Cc2c(CO)cnc(C)c2O3)c1 [Compound E544-0129]
IC50 (PSD95 d1): 2.5 µM | IC50 (PSD95 d3): 3.47 µM | IC50 (Tip1): > 250 µM | IC50 (Magi1 d1): 60.8 µM | IC50 (PSD95 d2): 4.98 µM | IC50 (Shank 1): 7.59 µM

CCOc1ccc(NS(=O)(=O)c2cccc(C(=O)Nc3ccccc3C(=O)O)c2)cc1 [Compound 3019-0348]
IC50 (PSD95 d1): > 250 µM | IC50 (PSD95 d3): > 250 µM | IC50 (Tip1): > 250 µM | IC50 (Magi1 d1): > 250 µM | IC50 (PSD95 d2): > 250 µM | IC50 (Shank 1): > 250 µM

CC(=O)N1CCc2cc(S(=O)(=O)NC(Cc3ccccc3)C(=O)Nc3ccccc3C(=O)O)ccc21 (stereo not drawn) [Compound C450-0454]
IC50 (PSD95 d1): 206 µM | IC50 (PSD95 d3): > 250 µM | IC50 (Tip1): > 250 µM | IC50 (Magi1 d1): > 250 µM | IC50 (PSD95 d2): > 250 µM | IC50 (Shank 1): > 250 µM

CCOc1ccc(NS(=O)(=O)c2cc(C(=O)Nc3ccccc3C(=O)O)ccc2C)cc1 [Compound 3558-0042]
IC50 (PSD95 d1): > 250 µM | IC50 (PSD95 d3): > 250 µM | IC50 (Tip1): > 250 µM | IC50 (Magi1 d1): > 250 µM | IC50 (PSD95 d2): > 250 µM | IC50 (Shank 1): > 250 µM

O=C(Nc1ccccc1C(=O)O)c1cccc(NC(=O)C(c2ccccc2)c2ccccc2)c1 [Compound 3289-2331]
IC50 (PSD95 d1): > 250 µM | IC50 (PSD95 d3): > 250 µM | IC50 (Tip1): > 250 µM | IC50 (Magi1 d1): 130 µM | IC50 (PSD95 d2): > 250 µM | IC50 (Shank 1): > 250 µM
